From US12077503B2, “Substituted cyclic amides and their use as herbicides” (FMC CORPORATION, priority 2015, dated 2024)

Tests used:
Type in all cases: in vivo
Kochia (Kochia scoparia) [1] = assay: Test A preemergence; details: Bassia scoparia, pre-emergence, 240 h, preemergence, 0 to 100 scale where 0 is no effect and 100 is complete control, read-out: Kochia plant response rating
Outline: (§1)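 Seeds sprayed preemergence with a directed soil spray, or plants at 2 to 10 cm height and one- to two-leaf stage sprayed postemergence, with test chemicals in a non-phytotoxic solvent mixture containing surfactant, in loam soil–sand blend. Injury rated visually against untreated controls after about 10 d in greenhouse, 0 (no effect) to 100 (complete control).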

[2] = test system: barnyardgrass (Echinochloa crus-galli); assay: Test A preemergence; details: Echinochloa crus-galli, pre-emergence, 240 h, preemergence, 0 to 100 scale where 0 is no effect and 100 is complete control, read-out: Barnyardgrass plant response rating
Outline: as §1

[3] = test system: giant foxtail (Setaria faberii); assay: Test A preemergence; details: Setaria faberi, pre-emergence, 240 h, preemergence, 0 to 100 scale where 0 is no effect and 100 is complete control, read-out: Foxtail, Giant plant response rating
Outline: as §1

[4] = test system: pigweed (Amaranthus retroflexus); assay: Test A preemergence; details: Amaranthus retroflexus, pre-emergence, 240 h, preemergence, 0 to 100 scale where 0 is no effect and 100 is complete control, read-out: Pigweed plant response rating
[5] = test system: ragweed (common ragweed, Ambrosia elatior); assay: Test A preemergence; details: Ambrosia artemisiifolia, pre-emergence, 240 h, 500 g ai/ha, preemergence; 0 to 100 scale where 0 is no effect and 100 is complete control; read-out: Ragweed plant response rating
Outline: as §1

[6] = test system: ryegrass, Italian (Italian ryegrass, Lolium multiflorum); assay: Test A preemergence; details: Lolium multiflorum, pre-emergence, 240 h, preemergence, 0 to 100 scale where 0 is no effect and 100 is complete control, read-out: Ryegrass, Italian plant response rating
Outline: as §1

[7] = test system: Galium (catchweed bedstraw, Galium aparine); assay: Test A postemergence; details: Galium, post-emergence, 240 h, Postemergence
Outline: as §1

Kochia (Kochia scoparia) [8] = assay: Test A postemergence; details: Bassia scoparia, post-emergence, 240 h, Postemergence
Outline: as §1

[9] = test system: barnyardgrass (Echinochloa crus-galli); assay: Test A postemergence; details: Echinochloa crus-galli, post-emergence, 240 h, Postemergence
Outline: as §1

[10] = test system: blackgrass (Alopecurus myosuroides); assay: Test A postemergence; details: Alopecurus myosuroides, post-emergence, 240 h, Postemergence
Outline: as §1

corn (Zea mays) = assay: Test A postemergence; details: Zea mays, post-emergence, 240 h, Postemergence
Outline: as §1

[11] = test system: giant foxtail (Setaria faberii); assay: Test A postemergence; details: Setaria faberi, post-emergence, 240 h, Postemergence
Outline: as §1

[12] = test system: pigweed (Amaranthus retroflexus); assay: Test A postemergence; details: Amaranthus retroflexus, post-emergence, 240 h, Postemergence
Outline: as §1

[13] = test system: ragweed (common ragweed, Ambrosia elatior); assay: Test A postemergence; details: Ambrosia artemisiifolia, post-emergence, 240 h, Postemergence
Outline: as §1

[14] = test system: ryegrass, Italian (Italian ryegrass, Lolium multiflorum); assay: Test A postemergence; details: Lolium multiflorum, post-emergence, 240 h, Postemergence
Outline: as §1

[15] = test system: wheat (Triticum aestivum); assay: Test A postemergence; details: Triticum aestivum, post-emergence, 240 h, Postemergence
Outline: as §1

[16] = 125 g ai/ha, visual injury rating, approximately 10 d

Cc1cc(F)cc([C@H]2CNC(=O)[C@@H]2C(=O)Nc2ccccc2S(C)(=O)=O)c1 [Compound 1307]
pest or weed control at 125 g/ha (Kochia (Kochia scoparia) [1]; [16]): 20%
pest or weed control at 500 g/ha (Kochia (Kochia scoparia) [1]; 500 g ai/ha): 90%
pest or weed control at 125 g/ha [2, 16]: 80%
pest or weed control at 500 g/ha ([2]; 500 g ai/ha): 90%
pest or weed control at 125 g/ha [3, 16]: 50%
pest or weed control at 500 g/ha ([3]; 500 g ai/ha): 90%
pest or weed control at 125 g/ha [4, 16]: 0%
pest or weed control at 500 g/ha ([4]; 500 g ai/ha): 0%
pest or weed control at 500 g/ha [5]: 60%
pest or weed control at 125 g/ha [6, 16]: 0%
pest or weed control at 500 g/ha ([6]; 500 g ai/ha): 0%
pest or weed control at 125 g/ha ([7]; 125 g ai/ha, visual rating about 10 d after treatment, read-out: Galium plant response rating (0 to 100 scale)): 30%
pest or weed control at 500 g/ha ([7]; 500 g ai/ha, visual injury, 0 to 100 scale (0 no effect, 100 complete control), approx. 10 d, read-out: Plant response rating, Galium): 40%
pest or weed control at 125 g/ha (Kochia (Kochia scoparia) [8]; 125 g ai/ha, visual rating about 10 d after treatment, read-out: Kochia plant response rating (0 to 100 scale)): 0%
pest or weed control at 500 g/ha (Kochia (Kochia scoparia) [8]; 500 g ai/ha, visual injury, 0 to 100 scale (0 no effect, 100 complete control), approx. 10 d, read-out: Plant response rating, Kochia): 40%
pest or weed control at 125 g/ha ([9]; 125 g ai/ha, visual rating about 10 d after treatment, read-out: Barnyardgrass plant response rating (0 to 100 scale, 0 no effect, 100 complete control)): 40%
pest or weed control at 500 g/ha ([9]; 500 g ai/ha, visual injury, 0 to 100 scale (0 no effect, 100 complete control), approx. 10 d, read-out: Plant response rating, Barnyardgrass): 90%
pest or weed control at 125 g/ha ([10]; 125 g ai/ha, visual rating about 10 d after treatment, read-out: Blackgrass plant response rating (0 to 100 scale)): 0%
pest or weed control at 500 g/ha ([10]; 500 g ai/ha, visual injury, 0 to 100 scale (0 no effect, 100 complete control), approx. 10 d, read-out: Plant response rating, Blackgrass): 0%
plant injury at 125 g/ha (corn (Zea mays); 125 g ai/ha, visual rating about 10 d after treatment, read-out: Corn plant response rating (0 to 100 scale)): 0%
Corn plant response rating (crop injury, 0 = no effect, 100 = complete kill) at 500 g/ha (corn (Zea mays); 500 g ai/ha, visual injury, 0 to 100 scale (0 no effect, 100 complete control), approx. 10 d): 0%
pest or weed control at 125 g/ha ([11]; 125 g ai/ha, visual rating about 10 d after treatment, read-out: Foxtail, Giant plant response rating (0 to 100 scale)): 0%
pest or weed control at 500 g/ha ([11]; 500 g ai/ha, visual injury, 0 to 100 scale (0 no effect, 100 complete control), approx. 10 d, read-out: Plant response rating, Foxtail, Giant): 20%
pest or weed control at 125 g/ha ([12]; 125 g ai/ha, visual rating about 10 d after treatment, read-out: Pigweed plant response rating (0 to 100 scale)): 0%
pest or weed control at 500 g/ha ([12]; 500 g ai/ha, visual injury, 0 to 100 scale (0 no effect, 100 complete control), approx. 10 d, read-out: Plant response rating, Pigweed): 0%
pest or weed control at 125 g/ha ([13]; 125 g ai/ha, visual rating about 10 d after treatment, read-out: Ragweed plant response rating (0 to 100 scale)): 0%
pest or weed control at 500 g/ha ([13]; 500 g ai/ha, visual injury, 0 to 100 scale (0 no effect, 100 complete control), approx. 10 d, read-out: Plant response rating, Ragweed): 0%
pest or weed control at 125 g/ha ([14]; 125 g ai/ha, visual rating about 10 d after treatment, read-out: Ryegrass, Italian plant response rating (0 to 100 scale)): 0%
pest or weed control at 500 g/ha ([14]; 500 g ai/ha, visual injury, 0 to 100 scale (0 no effect, 100 complete control), approx. 10 d, read-out: Plant response rating, Ryegrass, Italian): 0%
plant injury at 125 g/ha ([15]; 125 g ai/ha, visual rating about 10 d after treatment, read-out: Wheat plant response rating (0 to 100 scale)): 0%
plant injury at 500 g/ha ([15]; 500 g ai/ha, visual injury, 0 to 100 scale (0 no effect, 100 complete control), approx. 10 d, read-out: Plant response rating, Wheat): 0%
